Reference: patent US12310944B2 (priority 2019, dated 2025)
Where two headings read alike, the source gives them in different places.

Experiments:
[1] = biological target: T1, eqBuChE (BuChE, E.C.3.1.1.8, selected from horse serum) (Equus caballus, UniProt P81908); experiment: Cholinesterase inhibitory activity (DTNB/BTC), eqBuChE; format: biochemical
T1 construct: BuChE (E.C.3.1.1.8, selected from horse serum); purchased Sigma; host or cells: horse serum
Excerpt: Determination of Cholinesterase Inhibitory Activity:
Drugs and reagents: Test compounds, AChE (E.C.3.1.1.7, Type VI-S, selected from electric eel), BuChE (E.C.3.1.1.8, selected from horse serum), 5,5′-dithiobis(2-nitrobenzoic acid) (DTNB), acetylthiocholine (ATC) iodide and butyrylthiocholine (BTC) iodide were all purchased from Sigma; the positive control tacrine hydrochloride (9-amino-1,2,3,4-tetrahydroacridine hydrochloride hydrate) was purchased from BioTrend.
(§1) Instrument: THERMO Varioskan Flash full-wavelength multifunctional microplate reader.
(1) Formulation of buffer: 13.6 g of potassium dihydrogen phosphate was dissolved in 1 L of water, and pH was adjusted with potassium hydroxide to reach pH=8±0.1. The solution was stored at 4° C. for later use.
(2) Formulation of 0.01 M DTNB solution: 0.396 g of DTNB and 0.15 g of sodium bicarbonate were dissolved in 100 mL of water to prepare a 0.01 M DTNB solution, which was stored at −30° C. for later use.
(3) Formulation of 0.075 M ATC and BTC solutions: 0.217 g of ATC was dissolved in 10 mL of water to prepare a 0.075 M ATC solution, which was stored at −30° C. for later use; 0.237 g of BTC was dissolved in 10 mL of water to prepare a 0.075 M BTC solution, which was stored at −30° C. for later use.
(4) Formulation of AChE and BuChE solutions: 5,000 units of AChE were dissolved in 1 mL of 1% gel solution, and then diluted to 100 mL with water to prepare a AChE solution with a concentration of 5 units/mL, which was stored at −30° C. for later use; 5,000 units of BuChE were dissolved in 1 mL of 1% gel solution, and then diluted to 100 mL with water to prepare a BuChE solution with a concentration of 5 units/mL, which was stored at −30° C. for later use.
(5) Formulation of test substance solution: The test compound was dissolved in ethanol to obtain a solution with a concentration of 10^−3 M (ethanol would not affect the test results), and then diluted with water to prepare solutions with concentrations of […], 10^−5, 10^−6, 10^−7, 10^−8, 10^−9, and 10^−10 M, respectively.
Before the start of the experiment, all the solutions as used were warmed to room temperature, and the AChE and BuChE solutions were diluted 1-fold with water to prepare an enzyme solution with a concentration of 2.5 units/mL. The background UV absorbance was measured with a blank buffer (3 mL) as a subtraction value. Firstly, 100 μL of test compound solution, 100 μL of DTNB solution, and 100 μL of enzyme solution were added to 3 mL of buffer. After adding 20 μL of ATC or BTC solution to trigger the reaction, the time was recorded immediately and the test solution was mixted quickly and uniformly at the same time. After 2 minutes, the UV absorbance was measured at a wavelength of […]. The blank control group was measured with an equal volume of water instead of the test substance solution. All tests were performed three times in parallel. The UV absorption value of the blank control group was taken as 100%, the absorbance (OD value) of the test compound at each concentration was recorded, and GraphPad Prism™ (GraphPad Software, San Diego, CA, USA) software was used to analyze the results in a non-linear regression analysis model to calculate the corresponding IC50 values, as shown in Table 1.

hBuChE = hBuChE (Homo sapiens, UniProt P06276); experiment: Cholinesterase inhibitory activity (DTNB/BTC), hBuChE; format: biochemical; details: mean ± SEM
PC-12 neural cell line = experiment: Toxicity test in PC-12 nerve cell (MTT); format: cell-based; details: PC-12 cells; for SR(%) cell survival rate, 20 μM: 20 μM compound for 24 h; for SR(%) cell survival rate, 50 μM: 50 μM compound for 24 h
Description: Toxicity Test in PC-12 Nerve Cell:
Drugs and reagents: Test compounds, DMEM medium (01-050-1A) purchased from Biological Industries, FBS fetal bovine serum (04-001-1A) purchased from Biological Industries, MTT thiazolyl blue reagent (KGT525500) purchased from KeyGEN BioTECH.
as §1
About 3×10^3 PC-12 cells were evenly mixed in 0.1 mL of DMEM medium containing 10% FBS, and plated on a 96-well bottom plate, and incubated overnight at 37° C. in an environment containing 5% CO2. The 20 μM and 50 μM compounds diluted in 0.1 mL of DMEM medium were treated on the cells for 24 hours. Then MTT reagent was added to the well plate, and the plate was incubated at 37° C. for 2 to 4 hours. The color reaction was measured at 492 nm using a spectrophotometer (Thermo, multiskan FC).

[2] = read-out: IC50 (nM) ± SEM eqBuChE
[3] = eqBuChE, mean ± SEM, three parallel tests

T1 sequence (P81908 whole entry): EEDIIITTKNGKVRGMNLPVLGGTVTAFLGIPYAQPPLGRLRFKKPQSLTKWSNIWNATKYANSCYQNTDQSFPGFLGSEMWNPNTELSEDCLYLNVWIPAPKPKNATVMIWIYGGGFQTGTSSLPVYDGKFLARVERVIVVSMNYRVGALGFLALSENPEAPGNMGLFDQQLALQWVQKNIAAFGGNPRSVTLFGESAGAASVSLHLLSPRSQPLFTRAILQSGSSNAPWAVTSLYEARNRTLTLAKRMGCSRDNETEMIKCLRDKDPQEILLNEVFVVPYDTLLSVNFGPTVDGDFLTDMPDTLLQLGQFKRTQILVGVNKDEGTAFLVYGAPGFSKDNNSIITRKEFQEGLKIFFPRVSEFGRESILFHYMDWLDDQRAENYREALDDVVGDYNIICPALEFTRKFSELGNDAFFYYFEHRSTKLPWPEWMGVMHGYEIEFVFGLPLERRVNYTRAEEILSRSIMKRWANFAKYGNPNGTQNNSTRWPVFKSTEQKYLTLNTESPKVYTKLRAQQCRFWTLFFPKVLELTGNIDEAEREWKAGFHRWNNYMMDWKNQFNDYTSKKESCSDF

Compound | IC50 [1, 2] [nM] | IC50 (hBuChE) [nM] | SR(%) cell survival rate, 20 μM (PC-12 neural cell line) [%] | SR(%) cell survival rate, 50 μM (PC-12 neural cell line) [%] | IC50 [1, 3] [nM]
CCN(CC)Cc1ccccc1CNC(=O)c1cccc(NC(=O)c2ccc(I)cc2)c1 [Compound 21, 3-(4-iodobenzamido)-N-(2-((diethylamino)methyl)benzyl)benzamide] | 1.59 ± 0.26 | 3.33 ± 1.62 | 94.40 | 89.63 | 
CCN(CC)Cc1ccccc1CNC(=O)c1cccc(NC(=O)c2ccc(C)cc2)c1 [Compound 22, N-(2-((diethylamino)methyl)benzyl)-3-(4-methylbenzamido)benzamide] | 0.98 ± 0.21 | 1.54 ± 0.56 | 93.35 | 89.42 | 
CCN(CC)Cc1ccccc1CNC(=O)c1cccc(NC(=O)c2ccc(C)c(C)c2)c1 [Compound 23, N-(3-((2-((diethylamino)methyl)benzyl)carbamoyl)phenyl)-3,4-dimethylbenzamide] | 0.8 ± 0.24 | 1.53 ± 0.55 | 85.05 | 80.72 | 
CCN(CC)Cc1ccccc1CNC(=O)c1cccc(NC(=O)c2ccc(C(C)C)cc2)c1 [Compound 24] | 0.58 ± 0.67 | 2.08 ± 0.73 | 97.02 | 86.21 | 
CCN(CC)Cc1ccccc1CNC(=O)c1cccc(NC(=O)c2ccc(C(F)(F)F)cc2)c1 [Compound 25] | 0.38 ± 0.1 | 1.41 ± 0.01 | 97.58 | 91.57 | 
CCN(CC)Cc1ccccc1CNC(=O)c1cccc(NC(=O)c2ccc(OC)cc2)c1 [Compound 26] |  | 1.04 ± 0.52 | 97.20 | 82.25 | 0.55 ± 0.09
CCN(CC)Cc1ccccc1CNC(=O)c1cccc(NC(=O)c2cccc(OC)c2)c1 [Compound 27] | 4.91 ± 1.35 | 12.8 ± 6.01 | 91.23 | 83.60 | 
CCN(CC)Cc1ccccc1CNC(=O)c1cccc(NC(=O)c2ccccc2OC)c1 [Compound 28] | 5.28 ± 1.21 | 20 ± 2.06 | 95.42 | 85.46 | 
CCN(CC)Cc1ccccc1CNC(=O)c1cccc(NC(=O)c2ccc(C(=O)OC)cc2)c1 [Compound 29, methyl 4-((3-((2-((diethylamino)methyl)benzyl)carbamoyl)phenyl)carbamoyl)benzoate] | 2.48 ± 0.26 | 9.06 ± 0.74 | 99.42 | 93.32 | 
CCN(CC)Cc1ccccc1CNC(=O)c1cccc(NC(=O)c2ccc(C(C)=O)cc2)c1 [Compound 30] |  | 24 ± 1.52 | 91.86 | 72.56 | 6.63 ± 0.66
CCN(CC)Cc1ccccc1CNC(=O)c1cccc(NC(=O)c2ccc(C#N)cc2)c1 [Compound 31, 3-(4-cyanobenzamido)-N-(2-((diethylamino)methyl)benzyl)benzamide] | 15.8 ± 2.84 | 16.5 ± 15.1 | 94.67 | 91.59 | 
CCN(CC)Cc1ccccc1CNC(=O)c1cccc(NC(=O)c2ccc([N+](=O)[O-])cc2)c1 [Compound 32] | 22.6 ± 0.98 | 30.9 ± 3.26 | 97.42 | 84.65 | 
CCN(CC)Cc1ccccc1CNC(=O)c1cccc(NC(=O)c2ccc(N)cc2)c1 [Compound 33] | 1.56 ± 0.67 | 7.99 ± 2.53 | 90.21 | 74.62 | 
CN(C)Cc1ccccc1CNC(=O)c1cccc(NC(=O)c2cccs2)c1 [Compound 34, N-(3-((2-((dimethylamino)methyl)benzyl)carbamoyl)phenyl)thiophene-2-carboxamide] |  | 0.75 ± 0.27 | 96.10 | 94.5 | 0.29 ± 0.05
CCCN(CCC)Cc1ccccc1CNC(=O)c1cccc(NC(=O)c2cccs2)c1 [Compound 35, N-(3-((2-((dipropylamino)methyl)benzyl)carbamoyl)phenyl)thiophene-2-carboxamide] |  | 0.89 ± 0.67 | 92.58 | 84.86 | 0.45 ± 0.04
CCN(CC)Cc1cccc(CNC(=O)c2cccc(NC(=O)c3cccs3)c2)c1 [Compound 37, N-(3-((3-((diethylamino)methyl)benzyl)carbamoyl)phenyl)thiophene-2-carboxamide] | 12.6 ± 0.86 | 32.9 ± 15.7 | 92.05 | 82.03 | 
CCN(CC)Cc1ccc(CNC(=O)c2cccc(NC(=O)c3cccs3)c2)cc1 [Compound 38, N-(3-((4-((diethylamino)methyl)benzyl)carbamoyl)phenyl)thiophene-2-carboxamide] | 24.7 ± 10.6 | 75 ± 22.9 | 93.67 | 84.23 | 
